Data taken from US11666586B2, “Compositions and methods for treating acne vulgaris” (Dermala, Inc., priority 2016, dated 2023).
≈ marks a conversion by molar mass, not a printed value. Read-outs that look alike come from different tables or passages of the source. Values belong to the compound of their own block, whether it stands above or below them.

What was measured:
[1] = test system: S. epidermidis (ATCC 12228); test: Fermentation of prebiotics by S. epidermidis; format: cell-based, Staphylococcus epidermidis; details: 2% prebiotic, six days anaerobic, compared to PBS control
Procedure: Preparation of Prebiotics: Glycerol, sucrose, β-lactose, and D-(+)-maltose were purchased from Sigma-Aldrich. Stock solutions of each prebiotic (4% w/v) were prepared in water and filtered through a 0.22 μm filter for sterilization.
Preparation of S. epidermidis conditioned media: S. epidermidis (ATCC 12228) was cultured on trypic soy broth (TSB) agar plates at 37° C. For each assay, an inoculum of S. epidermidis was prepared by suspending one colony of S. epidermidis from a TSB agar plate into 7 ml of TSB broth and growing at 37° C., 215 RPM for 16 hours. The overnight culture was subcultured by adding 100 μl of overnight culture to 10 ml of fresh TSB. Once mid-log phase was reached, the cells were pelleted by centrifugation, washed with PBS and resuspended in fresh PBS. In 15 ml culture tubes, 4.9 ml of Rich Broth (20 g/L yeast extract, 6 g/L TSB) was combined with 40 μl 0.5% phenol red indicator, 5 ml of 4% prebiotic (glycerol, sucrose, β-lactose, or D-(+)-maltose) or PBS as a control, and S. epidermidis (10^5 CFU/ml) and placed in an anaerobic Gas-Pak (BD). The cultures were incubated at 37° C., 215 RPM for 6 days. Following fermentation, the cells were pelleted and the supernatants were filtered through a 0.22 μm filter for sterilization.
No change in color occurred in PBS control (a).

P. acnes (ATCC 6919) = test: Minimum Inhibitory Concentration (MIC) determination, microbroth dilution; format: cell-based, Propionibacterium acnes; details: API alone, 48 h anaerobic, ≥90% reduction in growth (OD600); for MIC: Cutibacterium acnes, ATCC6919, read-out: individual MIC
Procedure: P. acnes (ATCC 6919) was cultured on Brucella plates supplemented with 0.1 g/L hemin, 0.01 g/L vitamin K, and 5% (v/v) defibrinated sheep's blood at 37° C. under anaerobic conditions using a Gas-Pak (BD). For each assay, an inoculum of P. acnes was prepared by suspending a colony of P. acnes in 5 mL Reinforced Clostridium medium (RCM) and growing at 37° C. and 250 RPM under anaerobic conditions for 30 hours. […] Individual MIC values were determined for each drug according to the microbroth dilution method. […] Media without P. acnes and medium with P. acnes only were used for negative and positive controls, respectively, and contained the highest concentration of solvent used in each drug analysis. Plates were incubated under anaerobic conditions using a Gas-Pak (BD) for 48 hours at 37° C. Following incubation, each well was resuspended by pipetting and the optical density at 600 nm (OD600) was determined on a plate reader.

P. acnes 6919 = test: Time-kill assay; format: cell-based, Propionibacterium acnes; details: DRM1 30 mM or salicylic acid […] mM alone (2× MIC); combination […] + […]; RCM broth with 12% propylene glycol
biofilm-forming strains = test system: biofilm-forming strains
Source text: Biofilm formation is an important factor in P. acnes pathogenicity and biofilm is detected in approximately half of hair follicles of acne patients.

[2] = test system: P. acnes strains RMA#20660 and RMA#20661; test: MIC against multi-resistant P. acnes strains; format: cell-based, Propionibacterium acnes
Procedure: Individual MIC values were determined for each drug according to the microbroth dilution method. Briefly, 2-fold serial dilutions of each drug (50 μl) were added to wells in a 96-well plate followed by 50 μl of the prepared P. acnes inoculum as described in Example 1. Media without P. acnes and medium with P. acnes only were used for negative and positive controls, respectively, and contained the highest concentration of solvent used in each drug analysis. Plates were incubated under anaerobic conditions using a Gas-Pak (BD) for 48 hours at 37° C. Following incubation, each well was resuspended by pipetting and the optical density at 600 nm (OD600) was determined on a plate reader.

P. acnes = details: serial passage, 10 cycles of 72 hours, method written in future tense
Source text: Resistance development may be measured by two methods: single step for the determination of spontaneous frequency of resistance development and serial passage for the determination of progressive resistance development.

[3] = Testing of combination products in human subjects with acne; details: spot treatment
Source text: The Formulation 1 was applied using Acne Treatment Pads one or two times per day.

SMILES: OC[C@H]1O[C@@](CO)(O[C@H]2O[C@H](CO)[C@@H](O)[C@H](O)[C@H]2O)[C@@H](O)[C@@H]1O [sucrose]
acidification of media (phenol red colour) by S. epidermidis fermentation [1]: change of color from red to yellow

MIC (P. acnes (ATCC 6919); P. acnes 6919): 0.063 µg/mL
SMILES: CCC[C@@H]1C[C@@H](C(=O)N[C@@H]([C@H]2O[C@H](SC)[C@H](O)[C@@H](O)[C@H]2O)[C@H](C)Cl)N(C)C1 [Clindamycin, clindamycin, reference compound]

SMILES: OCC(O)CO [glycerol]
acidification of media (phenol red colour) by S. epidermidis fermentation [1]: change of color from red to yellow

SMILES: OC[C@H]1O[C@@H](O[C@H]2[C@H](O)[C@@H](O)[C@H](O)O[C@@H]2CO)[C@H](O)[C@@H](O)[C@H]1O [β-lactose]
acidification of media (phenol red colour) by S. epidermidis fermentation [1]: change of color from red to yellow

MIC (P. acnes (ATCC 6919); P. acnes ATCC 6919): 7.5 mM
SMILES: O=C(O)c1ccccc1O [Salicylic Acid, salicylic acid, reference compound]
growth on plate after 15 minutes (P. acnes 6919): growth was evident

SMILES: O=C(O)CCC(=O)O [DRM1, succinic acid]
concentration preventing biofilm formation (biofilm-forming strains): ≥ 7.5 mM
MIC ([2]; Cutibacterium acnes, each of RMA#20660 and RMA#20661 (resistant to erythromycin, clindamycin, minocycline, doxycycline), ≥90% decrease in growth, OD600): 15 mM (≈ 1770 µg/mL)
bactericidal activity against antibiotic-resistant P. acnes strains ([2]; RMA#20660 and RMA#20661): bactericidal
growth on plate after 15 minutes (P. acnes 6919): growth was evident
individual MIC (P. acnes (ATCC 6919); P. acnes 6919): 1771 µg/mL
individual MIC (P. acnes (ATCC 6919); P. acnes ATCC 6919): 15 mM
MIC (P. acnes (ATCC 6919); P. acnes 6919): 1770 µg/mL
MIC (P. acnes (ATCC 6919); P. acnes ATCC 6919): 15 mM
spontaneous or progressive resistance development (P. acnes): did not develop spontaneous or progressive resistance

MIC (P. acnes (ATCC 6919); P. acnes ATCC 6919): 7.5 mM
SMILES: O=C(O)CCCCCCCC(=O)O [Azelaic acid, azelaic acid, reference compound]

MIC (P. acnes (ATCC 6919); P. acnes ATCC 6919): 1.88 mM
SMILES: O=C(O)c1ccccn1 [Picolinic acid, picolinic acid]

SMILES: O=C(OOC(=O)c1ccccc1)c1ccccc1 [BPO, benzoyl peroxide, reference compound]
hyperpigmentation (dark spot side effect) [3]: dark spot side effect observed
individual MIC (P. acnes (ATCC 6919); P. acnes 6919): 125 µg/mL
MIC (P. acnes (ATCC 6919); P. acnes 6919): 125 µg/mL

SMILES: OC[C@H]1O[C@H](O[C@H]2[C@H](O)[C@@H](O)[C@H](O)O[C@@H]2CO)[C@H](O)[C@@H](O)[C@@H]1O [D-(+)-maltose]
acidification of media (phenol red colour) by S. epidermidis fermentation [1]: change of color from red to yellow
